Laboratory results: ChEMBL document CHEMBL4017454, “Bioactive terpenoids from Silybum marianum and their suppression on NO release in LPS-induced BV-2 cells and interaction with iNOS” (Bioorg Med Chem Lett, 2017)

Tests used:
BV-2 [1] = test: Cytotoxicity against mouse BV2 cells assessed as cell survival by MTT assay; type: cell-based
BV-2 [2] = test: Inhibition of LPS-induced NO production in mouse BV2 cells after 20 hrs by Griess assay; type: functional, cell-based; details: BV-2, 20 h

Row | SMILES | Activity (BV-2 [1]) | IC50 (BV-2 [2]) [µM]
1 | CC1=C2C[C@H]([C@@](C)(O)CO)CC[C@@]2(C)[C@H](O)CC1=O | Non-Toxic | 6.8
2 | CC(C)(O)c1ccc(CO)c(O)c1 | Non-Toxic | 15.2
3 | Cc1ccc([C@@H](C)CO)cc1O | Non-Toxic | 17.8
4 | CSC(=N)N.O=S(=O)(O)O | Non-Toxic | 2.5
5 | CC(C)(O)c1ccc(CO)c(O[C@@H]2O[C@H](CO)[C@@H](O)[C@H](O)[C@H]2O)c1 | Non-Toxic | 14.1
